One experiment addresses T1, sGC enzyme (Homo sapiens, UniProt Q02108+Q02153).
T1 construct: host or cells: HEK293 cells expressing GloSensor 40F cGMP
T1 sequence (Q02153 1-619): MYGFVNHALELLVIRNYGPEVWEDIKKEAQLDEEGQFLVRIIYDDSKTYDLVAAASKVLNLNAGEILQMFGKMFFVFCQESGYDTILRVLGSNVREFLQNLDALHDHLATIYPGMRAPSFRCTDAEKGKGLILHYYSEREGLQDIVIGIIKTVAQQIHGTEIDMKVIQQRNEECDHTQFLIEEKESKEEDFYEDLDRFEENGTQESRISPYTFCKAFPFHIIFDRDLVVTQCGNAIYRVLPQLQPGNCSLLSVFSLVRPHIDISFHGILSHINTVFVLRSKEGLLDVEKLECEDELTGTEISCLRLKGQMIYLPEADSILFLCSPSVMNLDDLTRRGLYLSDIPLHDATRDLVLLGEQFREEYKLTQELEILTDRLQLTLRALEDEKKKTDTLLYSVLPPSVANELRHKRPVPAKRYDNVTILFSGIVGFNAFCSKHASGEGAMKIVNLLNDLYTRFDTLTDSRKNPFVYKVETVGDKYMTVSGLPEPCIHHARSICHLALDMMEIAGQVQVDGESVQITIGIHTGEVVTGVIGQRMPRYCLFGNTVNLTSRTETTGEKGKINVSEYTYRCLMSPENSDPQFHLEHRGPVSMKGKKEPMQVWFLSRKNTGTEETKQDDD
T1 sequence (Q02108 1-690): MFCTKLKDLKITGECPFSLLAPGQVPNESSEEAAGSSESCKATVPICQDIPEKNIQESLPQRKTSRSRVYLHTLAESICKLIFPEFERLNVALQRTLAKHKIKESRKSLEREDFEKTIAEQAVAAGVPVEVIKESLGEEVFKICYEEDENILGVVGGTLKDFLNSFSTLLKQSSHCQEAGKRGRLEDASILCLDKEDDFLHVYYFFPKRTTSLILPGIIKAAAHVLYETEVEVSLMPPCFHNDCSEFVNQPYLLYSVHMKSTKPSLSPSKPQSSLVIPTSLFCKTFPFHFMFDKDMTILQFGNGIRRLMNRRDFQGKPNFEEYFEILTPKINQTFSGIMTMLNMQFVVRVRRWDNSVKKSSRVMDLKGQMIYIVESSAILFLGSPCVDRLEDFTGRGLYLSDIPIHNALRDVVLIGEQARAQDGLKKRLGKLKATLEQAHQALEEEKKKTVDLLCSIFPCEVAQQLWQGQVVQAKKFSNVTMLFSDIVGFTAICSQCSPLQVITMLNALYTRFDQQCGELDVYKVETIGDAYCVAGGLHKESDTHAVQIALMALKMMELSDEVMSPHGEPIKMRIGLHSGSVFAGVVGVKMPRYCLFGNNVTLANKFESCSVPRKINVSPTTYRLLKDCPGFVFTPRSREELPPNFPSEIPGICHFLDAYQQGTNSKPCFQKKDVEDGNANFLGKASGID
In words: cGMP GloSensor cell-based assay, 384-well format. Particulars: read-out: sGC_HEK_GloSensor EC50/IC50 Abs (Norm) (nM) Binned (~). The text has this:
Human embryonic kidney cells (HEK293) cells expressing GloSensor™ 40F cGMP (Part No: CS182801, Promega) were used to evaluate the activity of test compounds. The luminescent biosensors (engineered luciferase) that were incorporated into these cells detect cGMP formed by the compounds stimulating the sGC enzyme and emit luminescence.
cGMP GloSensor cells were maintained in Dulbecco's Modification of Eagle's Medium (DMEM) supplemented with fetal bovine serum (FBS) (10% final) and hygromycine (200 ug/ml). The day before assay, cells were plated in DMEM with 10% FBS in a 50 μL volume at a density of 1.5×10^4 cells/well in a poly-D-lysine coated 384-well flat white-bottom plate (Corning Cat No 35661). Cells were incubated overnight at 37° C. in a humidified chamber with 5% CO2. The next day, medium was removed and cells were replaced with 40 ul/well of GloSensor™, 2 mM (Promega Cat No E1291). Cells were treated for 90 minutes at 25° C. to allow the substrate to equilibrate in the cells. Test compounds and Diethylenetriamine NONOate (DETA-NONOate) was diluted to 3 mM (20×) in serum-free CO2 independent medium and serially diluted at 4× dilutions to create 5× dose curve from which 10 ul was added to the wells (x μM concentration for test compound solution and 10 μM concentration for DETA-NONOate solution; wherein x is one of the following final concentrations). • 30000 nM • 7500 nM • 1875 nM • 468.75 nM • 117.19 nM • 29.29 nM • 7.32 nM • 1.83 nM • 0.46 nM • 0.114 nM • 0.029 nM
For the kinetics studies, luminescense was measured right away for 0.2 sec per well with Envision (Perkin Elmer model No). For endpoint SAR screening, data were collected after 55 min incubation at room temperature.
Data analysis was carried out as indicated above in Example 2A.

Experiment [1] addresses T2, soluble guanylate cyclase (sGC) (Homo sapiens, UniProt Q02108+Q02153).
T2 construct: endogenously expressing soluble guanylate cyclase (sGC); endogenous in cells; host or cells: HEK293
T2 sequence (Q02153 1-619): T1 sequence (Q02153 1-619)
T2 sequence (Q02108 1-690): T1 sequence (Q02108 1-690)
In words: sGC-HEK-cGMP assay with LC/MS detection. Format: cell-based. Particulars: HEK293 whole cells, LC/MS detection of cGMP, 10 μM DETA-NONOate; 50% of high control response (30 μM Compound Y); read-out: Absolute EC50 (nM)- binned (~).

29 molecules from patent publication US20190284168A1, “PYRAZOLE DERIVATIES AS SGC STIMULATORS” (IRONWOOD PHARMACEUTICALS, INC., priority 2014, published 2019) can be followed below.

Turning to `O[C@@H]1CN(c2nc(-c3cc(-c4ccon4)n(Cc4ccccc4F)n3)ncc2F)C[C@H]1O` (racemic) [Compound 167, trans-1-(5-fluoro-2-(1-(2-fluorobenzyl)-5-(isoxazol-3-yl)-1H-pyrazol-3-yl)pyrimidin-4-yl)pyrrolidine-3,4-diol], the EC50 at sGC enzyme was less than 100 nM. Still for that read-out and setting: in the case of `O=c1[nH]c(-c2cc(-c3ccsn3)n(Cc3ccccc3F)n2)ncc1F` [Compound 111] it was less than 100 nM; in that of `O=c1[nH]c(-c2cc(-c3ccon3)n(CCC(F)(F)C(F)(F)F)n2)ncc1F` [Compound 128, 5-fluoro-2-(5-(isoxazol-3-yl)-1-(3,3,4,4,4-pentafluorobutyl)-1H-pyrazol-3-yl)pyrimidin-4(3H)-one], more than 1000 nM; in that of `CC(C)(C)OC(=O)C[C@H]1C[C@@H](CCNc2nc(-c3cc(-c4ccon4)n(Cc4ccccc4F)n3)ncc2F)OC(C)(C)O1` [Compound 132], less than 100 nM. In the case of `O=C1C[C@H](O)C[C@@H](CCNc2nc(-c3cc(-c4ccon4)n(Cc4ccccc4F)n3)ncc2F)O1` [Compound 133, (4R,6R)-6-(2-((5-fluoro-2-(1-(2-fluorobenzyl)-5-(isoxazol-3-yl)-1H-pyrazol-3-yl)pyrimidin-4-yl)amino)ethyl)-4-hydroxytetrahydro-2H-pyran-2-one], the EC50 on sGC enzyme was less than 100 nM. Still for that read-out and setting: for `O=C(O)C[C@H](O)C[C@H](O)CCNc1nc(-c2cc(-c3ccon3)n(Cc3ccccc3F)n2)ncc1F` [Compound 134, (3R,5R)-7-((5-fluoro-2-(1-(2-fluorobenzyl)-5-(isoxazol-3-yl)-1H-pyrazol-3-yl)pyrimidin-4-yl)amino)-3,5-dihydroxyheptanoic acid] the value was 100 to 1000 nM. Take `OC(CNc1nc(-c2cc(-c3ncco3)n(Cc3ccccc3F)n2)ncc1F)(C(F)(F)F)C(F)(F)F` [Compound 141]: the EC50 at sGC enzyme is 100 to 1000 nM. On to `Fc1cnc(-c2cc(-c3ccon3)n(Cc3cccc(F)c3F)n2)nc1` [Compound 142], for which the EC50 on sGC enzyme was more than 1000 nM. As to `Oc1nc(-c2cc(-c3ccon3)n(Cc3ncccc3F)n2)ncc1F` [Compound 143, 5-fluoro-2-(1-((3-fluoropyridin-2-yl)methyl)-5-(isoxazol-3-yl)-1H-pyrazol-3-yl)pyrimidin-4(3H)-one], the EC50 at sGC enzyme is more than 1000 nM. With `Fc1cnc(-c2cc(-c3ccon3)n(Cc3ncccc3F)n2)nc1` [Compound 144], the EC50 at sGC enzyme is more than 1000 nM.

On to `Nc1ccnc(-c2cc(-c3ccon3)n(Cc3ncccc3F)n2)n1` [Compound 145], for which, at sGC enzyme, the EC50 is more than 1000 nM. As for `Nc1nc(-c2cc(-c3ccon3)n(Cc3ncccc3F)n2)ncc1F` [Compound 146], on sGC enzyme, the EC50 lay in the range of 100 to 1000 nM. On to `CN(CC(O)c1ccc(O)c(O)c1)c1nc(-c2cc(-c3ccon3)n(Cc3ccccc3F)n2)ncc1F` (centres unmarked) [Compound 168, 4-(2-((5-fluoro-2-(1-(2-fluorobenzyl)-5-(isoxazol-3-yl)-1H-pyrazol-3-yl)pyrimidin-4-yl)(methyl)amino)-1-hydroxyethyl)benzene-1,2-diol], for which the EC50 at sGC enzyme is less than 100 nM. Consider `O[C@@H]1CN(c2nc(-c3cc(-c4ccon4)n(Cc4ccccc4F)n3)ncc2F)C[C@@H]1O` [Compound 169, cis-1-(5-fluoro-2-(1-(2-fluorobenzyl)-5-(isoxazol-3-yl)-1H-pyrazol-3-yl)pyrimidin-4-yl)pyrrolidine-3,4-diol], for which the EC50 on sGC enzyme was less than 100 nM. On to `OCCN1CCN(c2nc(-c3cc(-c4ccon4)n(Cc4ccccc4F)n3)ncc2F)CC1` [Compound 170, 2-(4-(5-fluoro-2-(1-(2-fluorobenzyl)-5-(isoxazol-3-yl)-1H-pyrazol-3-yl)pyrimidin-4-yl)piperazin-1-yl)ethanol], for which the EC50 at sGC enzyme is less than 100 nM.

For the molecule `COC(=O)C1CCN(c2nc(-c3cc(-c4ccon4)n(Cc4ccccc4F)n3)ncc2F)CC1` [Compound 171, methyl 1-(5-fluoro-2-(1-(2-fluorobenzyl)-5-(isoxazol-3-yl)-1H-pyrazol-3-yl)pyrimidin-4-yl)piperidine-4-carboxylate], the EC50 at sGC enzyme is less than 100 nM. The same measure, in the same setting: for `COC(=O)CCN(C)c1nc(-c2cc(-c3ccon3)n(Cc3ccccc3F)n2)ncc1F` [Compound 172, methyl 3-((5-fluoro-2-(1-(2-fluorobenzyl)-5-(isoxazol-3-yl)-1H-pyrazol-3-yl)pyrimidin-4-yl)(methyl)amino)propanoate] the value was less than 100 nM; for `NCC(=O)OC1CCN(c2nc(-c3cc(-c4ccon4)n(Cc4ccccc4F)n3)ncc2F)CC1` [Compound 173, 1-(5-fluoro-2-(1-(2-fluorobenzyl)-5-(isoxazol-3-yl)-1H-pyrazol-3-yl)pyrimidin-4-yl)piperidin-4-yl 2-aminoacetate], less than 100 nM. On the same count and under the same terms, in the case of `COC(=O)CCCNc1nc(-c2cc(-c3ccon3)n(Cc3ccccc3F)n2)ncc1F` [Compound 174, methyl 4-((5-fluoro-2-(1-(2-fluorobenzyl)-5-(isoxazol-3-yl)-1H-pyrazol-3-yl)pyrimidin-4-yl)amino)butanoate] it was less than 100 nM. For the molecule `Oc1cccc(F)c1Cn1nc(-c2ncc(F)c(NCC(O)(C(F)(F)F)C(F)(F)F)n2)cc1-c1ccon1` [Compound 183], the EC50 in experiment [1] is more than 1000 nM. `Oc1ccc(Cn2nc(-c3ncc(F)c(NCC(O)(C(F)(F)F)C(F)(F)F)n3)cc2-c2ccon2)c(F)c1` [Compound 184]: the EC50 in experiment [1] was more than 1000 nM. As for `CC(=O)c1cc(-c2ncc(F)c(NCC(C)(O)C(N)=O)n2)nn1Cc1ccccc1F` (centres unmarked) [Compound 193], the EC50 in experiment [1] was more than 1000 nM.

`CC(=O)c1cc(-c2ncc(F)c(N[C@@H](CO)C(N)=O)n2)nn1Cc1ccccc1F` [Compound 194, (S)-2-((2-(5-acetyl-1-(2-fluorobenzyl)-1H-pyrazol-3-yl)-5-fluoropyrimidin-4-yl)amino)-3-hydroxypropanamide]: the EC50 in experiment [1] is more than 1000 nM. On to `NC(=O)[C@](O)(CNc1nc(-c2cc(-c3ccon3)n(Cc3ccc(O)cc3F)n2)ncc1F)C(F)(F)F` [Compound 195], for which the EC50 in experiment [1] was more than 1000 nM. In the case of `CS(=O)(=O)c1cc(-c2ncc(F)c(O)n2)nn1Cc1ccccc1F` [Compound 196], the EC50 in experiment [1] is more than 30000 nM. Regarding `NCC(=O)OCCNc1nc(-c2cc(-c3ccon3)n(Cc3ccccc3F)n2)ncc1F` [Compound 199], the EC50 in experiment [1] lay within 100 to 1000 nM. `O=C(CN1CCCCC1)OCCNc1nc(-c2cc(-c3ccon3)n(Cc3ccccc3F)n2)ncc1F` [Compound 200]: in experiment [1], the EC50 was more than 1000 nM.

For the molecule `O=C(OCCNc1nc(-c2cc(-c3ccon3)n(Cc3ccccc3F)n2)ncc1F)C1CCCCN1` (centres unmarked) [Compound 202], the EC50 in experiment [1] was 100 to 1000 nM. Take `O=C(OCCNc1nc(-c2cc(-c3ccon3)n(Cc3ccccc3F)n2)ncc1F)c1ccccn1` [Compound 206]: the EC50 in experiment [1] was less than 100 nM.
